ChEMBL document CHEMBL1221401, “Antiproliferative compounds from Pongamiopsis pervilleana from the Madagascar Dry Forest” (J Nat Prod, 2010)

Tests used:
Format in all cases: functional, cell-based
A2780 = assay: Antiproliferative activity against human A2780 cells after 96 hrs by CellTiter-Glo luminescent cell viability assay; settings: A2780, 96 h
BT-549 = assay: Antiproliferative activity against human BT549 cells after 96 hrs by CellTiter-Glo luminescent cell viability assay; settings: BT-549, 96 h
DU-145 = assay: Antiproliferative activity against human DU145 cells after 96 hrs by CellTiter-Glo luminescent cell viability assay; settings: DU-145, 96 h
NCI-H460 = assay: Antiproliferative activity against human NCI-H460 cells after 96 hrs by CellTiter-Glo luminescent cell viability assay; settings: NCI-H460, 96 h
HCC 2998 = assay: Antiproliferative activity against human HCC2998 cells after 96 hrs by CellTiter-Glo luminescent cell viability assay; settings: HCC 2998, 96 h

SMILES | IC50 (A2780) [µM] | IC50 (BT-549) [µM] | IC50 (DU-145) [µM] | IC50 (NCI-H460) [µM] | IC50 (HCC 2998) [µM]
COc1c(-c2ccc3c(c2)OCO3)c(=O)oc2c3c(ccc12)OC(C)(C)C=C3 [PONGAVILLEANINE] | 9.5 |  |  |  | 
C=C(CO)[C@H]1Cc2cc3c(cc2O1)OC[C@H]1c2cc4c(cc2O[C@@H]31)OCO4 | > 54.4 |  |  |  | 
C=C(C)[C@H]1Cc2cc3c(cc2O1)OC[C@H]1c2cc4c(cc2O[C@@H]31)OCO4 [EMOROIDOCARPAN] | 26.5 |  |  |  | 
C=C(C)[C@H]1Cc2c(ccc3c2O[C@@H]2COc4cc(OC)c(OC)cc4[C@]2(O)C3=O)O1 [ROTENOLONE] | 0.95 | 1.6 | 2.7 | 2 | 2.9
